Assay results: ChEMBL document CHEMBL4049385 (Bioorg Med Chem Lett, 2017)
Activity calls are given as the source filed them. The rule behind the calls is not given here.

Tests used:
[1] = biological target: T1, Oxysterols receptor LXR-alpha (Homo sapiens) (UniProt Q13133); assay: Agonist activity at recombinant human GAL4-DBD-fused LXRalpha-LBD expressed in HEK293T cells at 10 to 20 uM in presence of RXR-antagonist HX531 measured after 12 to 14 hrs by dual-glo luciferase reporter gene assay; type: cell-based; conditions: HEK-293T
T1 sequence (whole entry): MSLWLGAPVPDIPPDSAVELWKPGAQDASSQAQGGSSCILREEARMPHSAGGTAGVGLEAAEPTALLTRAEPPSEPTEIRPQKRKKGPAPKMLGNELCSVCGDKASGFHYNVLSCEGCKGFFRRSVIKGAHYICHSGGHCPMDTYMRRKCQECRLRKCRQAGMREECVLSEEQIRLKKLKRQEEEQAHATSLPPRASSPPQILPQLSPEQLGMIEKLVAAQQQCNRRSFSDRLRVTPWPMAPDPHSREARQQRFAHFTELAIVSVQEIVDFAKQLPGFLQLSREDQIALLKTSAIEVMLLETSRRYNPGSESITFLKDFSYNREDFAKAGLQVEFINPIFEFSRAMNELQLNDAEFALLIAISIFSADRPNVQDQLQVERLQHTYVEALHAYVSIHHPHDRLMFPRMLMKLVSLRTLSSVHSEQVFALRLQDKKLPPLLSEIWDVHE

[2] = biological target: T1, Oxysterols receptor LXR-alpha (Homo sapiens); assay: Partial agonist activity at recombinant human GAL4-DBD-fused LXRalpha-LBD expressed in HEK293T cells at 10 uM measured after 12 to 14 hrs by dual-glo luciferase reporter gene assay relative to T0901317; type: cell-based; conditions: HEK-293T
[3] = test system: HEK-293T; assay: Effect on recombinant firefly luciferase activity expressed in HEK293T cells at 10 uM after 12 to 14 hrs by luminescence assay; type: ADME, cell-based; conditions: human
[4] = biological target: T2, Oxysterols receptor LXR-beta (Homo sapiens, UniProt P55055); assay: Partial agonist activity at recombinant human GAL4-DBD-fused LXRbeta-LBD expressed in HEK293T cells measured after 12 to 14 hrs by dual-glo luciferase reporter gene assay; type: cell-based, HEK-293T
T2 sequence (P55055 whole entry): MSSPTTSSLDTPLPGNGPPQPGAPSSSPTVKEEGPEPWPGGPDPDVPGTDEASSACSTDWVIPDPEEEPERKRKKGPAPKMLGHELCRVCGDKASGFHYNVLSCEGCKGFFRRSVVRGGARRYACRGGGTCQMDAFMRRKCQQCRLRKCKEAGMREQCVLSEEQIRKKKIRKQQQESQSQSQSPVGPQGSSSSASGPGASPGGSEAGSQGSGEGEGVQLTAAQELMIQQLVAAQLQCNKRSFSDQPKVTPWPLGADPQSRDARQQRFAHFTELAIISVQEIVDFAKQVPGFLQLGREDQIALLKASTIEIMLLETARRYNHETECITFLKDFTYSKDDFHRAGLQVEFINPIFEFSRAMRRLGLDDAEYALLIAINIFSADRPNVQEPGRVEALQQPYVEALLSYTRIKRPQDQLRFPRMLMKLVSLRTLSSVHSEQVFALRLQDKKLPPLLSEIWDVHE

[5] = biological target: T1, Oxysterols receptor LXR-alpha (Homo sapiens); assay: Partial antagonist activity at recombinant human GAL4-DBD-fused LXRalpha-LBD expressed in HEK293T cells assessed as inhibition of GW3965-induced receptor activation at 10 uM after 12 to 14 hrs by dual-glo luciferase reporter gene assay; type: cell-based; conditions: HEK-293T
[6] = biological target: T1, Oxysterols receptor LXR-alpha (Homo sapiens); assay: Partial antagonist activity at recombinant human GAL4-DBD-fused LXRalpha-LBD expressed in HEK293T cells assessed as inhibition of WAY252623-induced receptor activation at 10 uM after 12 to 14 hrs by dual-glo luciferase reporter gene assay; type: cell-based; conditions: HEK-293T
[7] = biological target: T1, Oxysterols receptor LXR-alpha (Homo sapiens); assay: Agonist activity at recombinant human GAL4-DBD-fused LXRalpha-LBD expressed in HEK293T cells at 10 uM in presence of LXR-agonist 22(R)-hydroxycholesterol measured after 12 to 14 hrs by dual-glo luciferase reporter gene assay; type: cell-based; conditions: HEK-293T
[8] = Cmax in chronic hand eczema patient at 30 mg, po administered once daily for 24 weeks; type: ADME, organism-based; parameters: dose 30 mg, route oral; conditions: human, in vivo
[9] = test system: Homo sapiens; assay: Toxicity in chronic hand eczema patient assessed as increase in serum cholesterol level at 30 mg, po administered once daily for 24 weeks relative to control; type: organism-based; conditions: in vivo, 4032 h
[10] = test system: Homo sapiens; assay: Toxicity in chronic hand eczema patient assessed as increase in triglyceride level at 30 mg, po administered once daily for 24 weeks relative to control; type: organism-based; conditions: in vivo, 4032 h
[11] = biological target: T3, Oxysterols receptor LXR-beta (Homo sapiens) (UniProt P55055); assay: Partial agonist activity at recombinant human GAL4-DBD-fused LXRbeta-LBD expressed in HEK293T cells at 10 uM measured after 12 to 14 hrs by dual-glo luciferase reporter gene assay relative to T0901317; type: cell-based; conditions: HEK-293T
T3 sequence (whole entry): T2 sequence (P55055 whole entry)

[12] = biological target: T1, Oxysterols receptor LXR-alpha (Homo sapiens); assay: Agonist activity at recombinant human GAL4-DBD-fused LXRalpha-LBD expressed in HEK293T cells at 10 uM in presence of RXR-antagonist HX531 measured after 12 to 14 hrs by dual-glo luciferase reporter gene assay; type: cell-based; conditions: HEK-293T
[13] = biological target: T4, Oxysterols receptor LXR-alpha (Homo sapiens, UniProt Q13133); assay: Partial agonist activity at recombinant human GAL4-DBD-fused LXRalpha-LBD expressed in HEK293T cells measured after 12 to 14 hrs by dual-glo luciferase reporter gene assay; type: cell-based, HEK-293T
T4 sequence (Q13133 whole entry): T1 sequence (whole entry)

[14] = biological target: T1, Oxysterols receptor LXR-alpha (Homo sapiens); assay: Agonist activity at recombinant human GAL4-DBD-fused LXRalpha-LBD expressed in HEK293T cells at 1 uM in presence of LXR-agonist 22(R)-hydroxycholesterol measured after 12 to 14 hrs by dual-glo luciferase reporter gene assay; type: cell-based; conditions: HEK-293T
[15] = Cmax in patient with solid tumor at 300 mg/m2, po administered once daily; type: ADME, organism-based; parameters: route oral; conditions: human, in vivo
[16] = test system: HEK-293T; assay: Effect on recombinant firefly luciferase activity expressed in HEK293T cells at 1 uM after 12 to 14 hrs by luminescence assay; type: ADME, cell-based; conditions: human
[17] = biological target: T1, Oxysterols receptor LXR-alpha (Homo sapiens); assay: Partial antagonist activity at recombinant human GAL4-DBD-fused LXRalpha-LBD expressed in HEK293T cells assessed as inhibition of GW3965-induced receptor activation at 1 uM measured after 12 to 14 hrs by dual-glo luciferase reporter gene assay; type: cell-based; conditions: HEK-293T
[18] = biological target: T1, Oxysterols receptor LXR-alpha (Homo sapiens); assay: Partial antagonist activity at recombinant human GAL4-DBD-fused LXRalpha-LBD expressed in HEK293T cells assessed as inhibition of WAY252623-induced receptor activation at 1 uM measured after 12 to 14 hrs by dual-glo luciferase reporter gene assay; type: cell-based; conditions: HEK-293T

With `CC(C)CC[C@@H](O)[C@@H](C)[C@H]1CC[C@H]2[C@@H]3CC=C4C[C@@H](O)CC[C@]4(C)[C@H]3CC[C@]12C` the Activity [1] was “Active”.
With `CC1=C(/C=C/C(C)=C\C=C\C(C)=C\C(=O)O)C(C)(C)CCC1` [ALITRETINOIN] the fold change (FC) [2] was 1.39, the Activity [3] was “Non-Toxic” and the EC50 [4] was 1730 nM. For the same molecule, the inhibition [5] was “Active”, the inhibition [6] was “Active” and the Activity [7] was “Active”. The Cmax [8] was 810 nM, the Activity [9] was 14% and the Activity [10] was 8%. For the same molecule, the fold change (FC) [11] was 1.68 and the Activity [12] was “Active”.
In the case of `C=C(c1ccc(C(=O)O)cc1)c1cc2c(cc1C)C(C)(C)CCC2(C)C` [BEXAROTENE], the fold change (FC) [2] is reported as 1.82, the EC50 [13] is reported as 196 nM and the EC50 [4] is reported as 434 nM. The Activity [14] was “Active”, the Cmax [15] was 3390 nM and the fold change (FC) [11] was 2.23. The Activity [16] was “Non-Toxic”, the inhibition [17] was “Active” and the inhibition [18] was “Active”.
For `Fc1ccc(-c2c3cccc(C(F)(F)F)c3nn2Cc2ccc(F)cc2Cl)cc1` [LXR-623], the EC50 [13] was 1440 nM and the EC50 [4] was 900 nM.
